Assay results: ChEMBL document CHEMBL1142956, “Small molecule inhibitors of histone arginine methyltransferases: homology modeling, molecular docking, binding mode analysis, and biological evaluations” (J Med Chem, 2007)

Legend:
RmtA = RmtA (Emericella nidulans, UniProt Q5VLE3); assay: Inhibition of Aspergillus nidulans recombinant GST-RmtA expressed in BL21 cells
[1] = biological target: Protein arginine N-methyltransferase 1 (Homo sapiens, UniProt Q99873); assay: Inhibition of human recombinant GST-PRMT1 expressed in BL21 cells

`O=C(Nc1ccccc1)Nc1ccc2c(O)cc(S(=O)(=O)O)cc2c1` gave an IC50 (RmtA) of 1080 µM.

`Nc1ccc(C(=O)O)c(-c2c3ccc(=O)cc-3oc3cc(O)ccc23)c1` gave an IC50 (RmtA) of 710 µM.

In the case of `O=C1NC(=O)C(=Nn2c(=O)[nH]c(=O)[nH]c2=O)C(=O)N1`, the IC50 (RmtA) is reported as over 164 µM and the IC50 [1] is reported as over 164 µM.

With `Nc1ccc2c(O)cc(S(=O)(=O)O)cc2c1` the IC50 (RmtA) was 590 µM.

`Nc1c(Br)cc(C(=O)O)c(-c2c3cc(Br)c(=O)c(Br)c-3oc3c(Br)c(O)c(Br)cc23)c1Br` showed an IC50 (RmtA) of 22.3 µM and an IC50 [1] of 4.8 µM.

For `CN(C)c1ccc(/N=N/c2ccc(S(=O)(=O)O)cc2)cc1`, the IC50 (RmtA) was 490 µM.

In the case of `O=C(O)c1ccc(Nc2nc(Cl)nc(Cl)n2)cc1`, the IC50 (RmtA) is reported as 406 µM.

In the case of `O=C(Nc1ccc2c(O)cc(S(=O)(=O)O)cc2c1)Nc1ccc2c(O)cc(S(=O)(=O)O)cc2c1`, the IC50 (RmtA) is reported as 88 µM.

`CC1=CC(=O)C(C(C)C)=C/C1=C(/c1cc(C(C)C)c(O)cc1C)c1ccccc1C(=O)O` was tested, and the IC50 (RmtA) was over 217 µM and the IC50 [1] was over 217 µM.

Work on `O=C1C=CC(=C(c2ccc(O)cc2)c2ccccc2S(=O)(=O)O)C=C1` yielded an IC50 (RmtA) of over 263 µM.

Work on `O=C(O)c1ccc(Nc2nc(Cl)nc(Cl)n2)cc1-c1c2ccc(=O)cc-2oc2cc(O)ccc12` yielded an IC50 (RmtA) of 73 µM.

`O=C1C=CC(=C(c2ccc(O)cc2)c2ccccc2C(=O)O)C=C1` showed an IC50 (RmtA) of 296 µM and an IC50 [1] of 885 µM.

`CC1=C(CN(CC(=O)O)CC(=O)O)C(=O)C(C(C)C)=C/C1=C(\c1ccccc1S(=O)(=O)O)c1cc(C(C)C)c(O)c(CN(CC(=O)O)CC(=O)O)c1C` gave an IC50 (RmtA) of over 34 µM and an IC50 [1] of over 34 µM.

`O=c1cc2oc3cc(O)c(O)cc3c(-c3ccccc3)c-2cc1O` was tested, and the IC50 (RmtA) was 160 µM.

Compound `O=[N+]([O-])c1ccc2c(/N=N/c3cccc4ccccc34)c(O)cc(S(=O)(=O)O)c2c1` has an IC50 (RmtA) of 103 µM.

In the case of `CN(C)c1ccc(/N=N/c2ccccc2C(=O)O)cc1`, the IC50 (RmtA) is reported as 2100 µM.

With `O=C(O)c1ccccc1-c1c2cc(Br)c(=O)c(Br)c-2oc2c(Br)c(O)c(Br)cc12` the IC50 (RmtA) was 0.18 µM and the IC50 [1] was 1.4 µM.

For `O=S(=O)(O)c1cc(O)c2ccc(NC(=S)Nc3ccccc3)cc2c1`, the IC50 (RmtA) was 1360 µM.

`Nc1cc(S(=O)(=O)O)cc2cc(S(=O)(=O)O)cc(O)c12` showed an IC50 (RmtA) of 220 µM.

`O=C1c2ccccc2C(=O)c2c1ccc(O)c2O` [ATHRAQUINONES A] showed an IC50 (RmtA) of 1220 µM.

Work on `COc1cc(/C=C/C(=O)CC(=O)/C=C/c2ccc(O)c(OC)c2)ccc1O` [CURCUMIN] yielded an IC50 (RmtA) of 1100 µM.

`O=C1OC2(c3ccc(O)cc3Oc3cc(O)ccc32)c2ccccc21` [FLUORESCEIN] was tested, and the IC50 (RmtA) was 123 µM.

`Cc1cc(C(=C2C=CC(=N)C=C2)c2ccc(N)cc2)ccc1N` [FUCHSIN, BASIC] gave an IC50 (RmtA; bl21) of 515 µM.

With `O=C1NS(=O)(=O)c2ccccc21` [SACCHARIN] the IC50 (RmtA) was over 510 µM and the IC50 [1] was over 510 µM.

`Cc1ccc(C(=O)Nc2ccc(S(=O)(=O)O)c3cc(S(=O)(=O)O)cc(S(=O)(=O)O)c23)cc1NC(=O)c1cccc(NC(=O)Nc2cccc(C(=O)Nc3cc(C(=O)Nc4ccc(S(=O)(=O)O)c5cc(S(=O)(=O)O)cc(S(=O)(=O)O)c45)ccc3C)c2)c1` [SURAMIN] was tested, and the IC50 (RmtA) was 5.9 µM and the IC50 [1] was 18.1 µM.
